Test results published in patent publication US20200339691A1, “PROTEINACEOUS MOLECULES AND USES THEREFOR” (priority 2018, published 2020).
Where a SMILES comes first, the peptide text is derived from it. The star is where a group is joined. Myristoyl = CCCCCCCCCCCCCC(=O)*

Legend:
[1] = system: MDA-MB-231 cells; assay type: cell-based, human; details: 50 μM peptide, 48 hours, n = 1;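 on COI, Live Single Cells (Cell Count): live means Hoechst-negative events among single cells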
Text: (§1) Non-adherent cells were removed during the washing steps.

[2] = system: CD44^hiCD24^lo CSCs in MDA-MB-231 cells; experiment: FACS analysis of CD44^hiCD24^lo cancer stem cells in MDA-MB-231 cells treated with P1 analogues; assay type: cell-based, human; details: 50 μM peptide, 48 hours; for CD44^hiCD24^lo CSCs (%) / COI, Live Single CD44^hiCD24^lo CSCs (Cell Count): n = 1; for Average Inhibition of CSCs (%) / CD44^hiCD24^lo CSCs (%) Repeat 1 / CD44^hiCD24^lo CSCs (%) Repeat 2 / CD44^hiCD24^lo CSCs (%) Repeat 3: n = 3
Description: Analogues of P1 (Table 6) were designed and synthesized in accordance with the procedure of Example 5. The ability of these analogues to inhibit cancer stem cells was determined using FACS analysis on MDA-MB-231 cells, which constitutively contain approximately 90% CD44^hiCD24^lo cancer stem cells, treated with the peptides.
as §1

Row | SMILES | COI (Cell Count) [1] | COI, Live Single Cells (Cell Count) [1] | COI, Single (Cell Count) [1] | Total Cell Count [1] | Inhibition of CSCs (%) Repeat 1 [2] [%] | Inhibition of CSCs (%) Repeat 2 [2] [%] | Inhibition of CSCs (%) Repeat 3 [2] [%] | CD44^hiCD24^lo CSCs (%) [2] [%] | COI, Live Single CD44^hiCD24^lo CSCs (Cell Count) [2] | Average Inhibition of CSCs (%) [2] [%] | CD44^hiCD24^lo CSCs (%) Repeat 1 [2] [%] | CD44^hiCD24^lo CSCs (%) Repeat 2 [2] [%] | CD44^hiCD24^lo CSCs (%) Repeat 3 [2] [%]
1 | CCCCCCCCCCCCCC(=O)N[C@@H](CC(C)C)C(=O)N[C@H](C(=O)N[C@@H](Cc1ccccc1)C(=O)N[C@H](C(=O)N[C@@H](Cc1ccccc1)C(=O)N[C@@H](CCCNC(=N)N)C(=O)N[C@@H](CC(C)C)C(=O)N[C@@H](CCCNC(=N)N)C(=O)N[C@@H](CCCCN)C(=O)NCC(=O)N[C@@H](CCCNC(=N)N)C(=O)N[C@@H](CCSC)C(=O)N[C@@H](CCSC)C(=O)N[C@@H](CC(=O)O)C(=O)N[C@H](C(=O)N[C@@H](CC(C)C)C(=O)N[C@@H](CCCCN)C(N)=O)C(C)C)[C@@H](C)CC)[C@@H](C)O [Peptide 2853842, Myristoyl-LTFIFRLRKGRMMDVLK-NH2] (Myristoyl-LTFIFRLRKGRMMDVLK-NH2) | 325 | 218 | 249 | 3873 | 76.16 | 78.88 | 81.46 | 12.39 | 27 | 78.83 | 21.37 | 18.95 | 16.64
2 | CCCCCCCCCCCCCC(=O)N[C@H](C(=O)N[C@@H](C)C(=O)N[C@H](C(=O)N[C@@H](Cc1ccccc1)C(=O)N[C@@H](CCCNC(=N)N)C(=O)N[C@@H](CC(C)C)C(=O)N[C@@H](CCCNC(=N)N)C(=O)N[C@@H](CCCCN)C(=O)NCC(=O)N[C@@H](CCCNC(=N)N)C(=O)N[C@@H](CCSC)C(=O)N[C@@H](CCSC)C(=O)N[C@@H](CC(=O)O)C(=O)N[C@H](C(=O)N[C@@H](CCCCN)C(=O)N[C@@H](CCCCN)C(N)=O)C(C)C)[C@@H](C)CC)[C@@H](C)O [Peptide 2815303, Myristoyl-TAIFRLRKGRMMDVKK-NH2] (Myristoyl-TAIFRLRKGRMMDVKK-NH2) | 18 | 8 | 17 | 10195 | 76.31 | 81.14 | 80.95 | 25.00 | 2 | 79.47 | 21.23 | 16.92 | 17.09
3 | CCCCCCCCCCCCCC(=O)N[C@H](C(=O)N[C@@H](Cc1ccccc1)C(=O)N[C@H](C(=O)N[C@@H](Cc1ccccc1)C(=O)N[C@@H](CCCNC(=N)N)C(=O)N[C@@H](CC(C)C)C(=O)N[C@@H](CCCNC(=N)N)C(=O)N[C@@H](CCCCN)C(=O)NCC(=O)N[C@@H](C)C(=O)N[C@@H](CCSC)C(=O)N[C@@H](CCSC)C(=O)N[C@@H](CC(=O)O)C(=O)N[C@H](C(=O)N[C@@H](CCCCN)C(=O)N[C@@H](CCCCN)C(N)=O)C(C)C)[C@@H](C)CC)[C@@H](C)O [Peptide 2815318, Myristoyl-TFIFRLRKGAMMDVKK-NH2] (Myristoyl-TFIFRLRKGAMMDVKK-NH2) | 183 | 132 | 142 | 3480 | 54.80 | 54.73 | 55.59 | 53.03 | 70 | 55.04 | 40.51 | 40.61 | 39.86
4 | CCCCCCCCCCCCCC(=O)N[C@@H](CC(C)C)C(=O)N[C@H](C(=O)N[C@@H](Cc1ccccc1)C(=O)N[C@H](C(=O)N[C@@H](Cc1ccccc1)C(=O)N[C@@H](CCCNC(=N)N)C(=O)N[C@@H](CC(C)C)C(=O)N[C@@H](CCCNC(=N)N)C(=O)N[C@@H](CCCCN)C(=O)NCC(=O)N[C@@H](CCCNC(=N)N)C(=O)N[C@@H](CCSC)C(=O)N[C@@H](CCSC)C(=O)N[C@@H](CC(=O)O)C(=O)N[C@H](C(=O)N[C@@H](CCCCN)C(=O)N[C@@H](CC(C)C)C(N)=O)C(C)C)[C@@H](C)CC)[C@@H](C)O [Peptide 2853846, Myristoyl-LTFIFRLRKGRMMDVKL-NH2] (Myristoyl-LTFIFRLRKGRMMDVKL-NH2) | 370 | 312 | 330 | 10000 | 61.79 | 63.60 | 62.39 | 27.88 | 87 | 62.59 | 34.25 | 32.66 | 33.75
5 | CCCCCCCCCCCCCC(=O)N[C@@H](CC(C)C)C(=O)N[C@H](C(=O)N[C@@H](Cc1ccccc1)C(=O)N[C@H](C(=O)N[C@@H](Cc1ccccc1)C(=O)N[C@@H](CCCNC(=N)N)C(=O)N[C@@H](CC(C)C)C(=O)N[C@@H](CCCNC(=N)N)C(=O)N[C@@H](CCCCN)C(=O)NCC(=O)N[C@@H](CCCNC(=N)N)C(=O)N[C@@H](CCSC)C(=O)N[C@@H](CCCCN)C(=O)N[C@@H](CC(=O)O)C(=O)N[C@H](C(=O)N[C@@H](CCCCN)C(=O)N[C@@H](CCCCN)C(N)=O)C(C)C)[C@@H](C)CC)[C@@H](C)O [Peptide 2853835, Myristoyl-LTFIFRLRKGRMKDVKK-NH2] (Myristoyl-LTFIFRLRKGRMKDVKK-NH2) | 1733 | 40 | 1292 | 8580 | 90.70 | 90.45 | 89.87 | 2.50 | 1 | 90.34 | 8.33 | 8.57 | 9.09
6 | CCCCCCCCCCCCCC(=O)N[C@@H](C)C(=O)N[C@@H](Cc1ccccc1)C(=O)N[C@H](C(=O)N[C@@H](Cc1ccccc1)C(=O)N[C@@H](CCCNC(=N)N)C(=O)N[C@@H](CC(C)C)C(=O)N[C@@H](CCCNC(=N)N)C(=O)N[C@@H](CCCCN)C(=O)NCC(=O)N[C@@H](CCCNC(=N)N)C(=O)N[C@@H](CCSC)C(=O)N[C@@H](CCSC)C(=O)N[C@@H](CC(=O)O)C(=O)N[C@H](C(=O)N[C@@H](CCCCN)C(=O)N[C@@H](CCCCN)C(N)=O)C(C)C)[C@@H](C)CC [Peptide 2815302, Myristoyl-AFIFRLRKGRMMDVKK-NH2] (Myristoyl-AFIFRLRKGRMMDVKK-NH2) | 516 | 438 | 466 | 5074 | 89.69 | 91.79 | 94.73 | 19.63 | 86 | 92.07 | 9.24 | 7.36 | 4.73
7 | CCCCCCCCCCCCCC(=O)N[C@@H](CC(C)C)C(=O)N[C@H](C(=O)N[C@@H](Cc1ccccc1)C(=O)N[C@H](C(=O)N[C@@H](Cc1ccccc1)C(=O)N[C@@H](CCCNC(=N)N)C(=O)N[C@@H](CC(C)C)C(=O)N[C@@H](CCCNC(=N)N)C(=O)N[C@@H](CCCCN)C(=O)NCC(=O)N[C@@H](CCCNC(=N)N)C(=O)N[C@@H](CCCCN)C(=O)N[C@@H](CCSC)C(=O)N[C@@H](CC(=O)O)C(=O)N[C@H](C(=O)N[C@@H](CCCCN)C(=O)N[C@@H](CCCCN)C(N)=O)C(C)C)[C@@H](C)CC)[C@@H](C)O [Peptide 2853833, Myristoyl-LTFIFRLRKGRKMDVKK-NH2] (Myristoyl-LTFIFRLRKGRKMDVKK-NH2) | 495 | 72 | 363 | 4559 | 70.25 | 75.23 | 85.46 | 12.50 | 9 | 76.98 | 26.67 | 22.22 | 13.04
